Assay [1] concerns infra-renal abdominal aorta. Description: Morphological analysis of intima/media ratios 28 days after in vivo stent implantation. Also noted: species or system New Zealand White rabbits. Particulars: 28 days after stent implantation, stent-based local release from microspheres, 0.25% cholesterol diet. Here is the method: Microsphere Preparation. Biodegradable poly(lactic-co-glycolic-acid)-polyethylene glycol (PLGA/PEG) microspheres were prepared as a modification of previously described techniques. […] Additionally, a pH buffer of 7.4 was incorporated to limit local pH changes in order to stabilize incorporated drugs and render the microspheres more biocompatible. During the microsphere manufacturing process, 2.0 mg of the angiogenesis inhibitor angiostatin (Calbiochem, La Jolla, Calif.) in […] phosphate buffered saline was added to the polymer solution. Control microspheres (blank microspheres) containing polymer and buffer without any drug were also prepared. Stents were prepared as above. In Vivo Stent Implantation. Age-matched adult male New Zealand White rabbits weighing 3.8–4.2 kg were used in accordance to NIH and institutional guidelines (n=6 animals per group). Under general anesthesia, an arteriotomy at the femoral artery was performed and a 5 Fr introducing sheath was placed. Under fluoroscopic guidance, aseptically prepared channeled stents filled with blank or angiostatin microspheres were deployed in the infra-renal abdominal aorta. Stents were post-dilated at 8 atm with a 5 mm angioplasty balloon (Jupiter, Cordis, Miami, Fla.) to a final lumen size of 125% above the baseline with care taken to ensure that […] were present within the stent segment. Pre- and post-deployment digital subtraction angiograms were recorded for the blank procedural control and angiostatin treatment groups. The rabbits were fed a 0.25% cholesterol diet after the intervention. Early 7 day follow up (n=3 per group) or late 28 day follow-up (n=3 per group) animals underwent total-body perfusion-fixation as previously described with immediate excision of the aortic segment containing stent. The 7 day aortic specimens were excised longitudinally and stents were removed. The resulting aortic segments were divided into two equal subsegments. One subsegment of each underwent fixation in 10% neutral buffered formalin and embedded in paraffin-for light microscopic and morphologic analysis. The remaining subsegment of each specimen was snap frozen for molecular assay. The 28 days aortic specimens were fixed in 10% neutral buffered formalin and were embedded in PolyBed (Polysciences, Warrington, Pa.) for light microscopic and morphologic analysis. Morphological Analysis of Intima/Media (I/M) Ratios. The seven day analysis consisted of thick (5 μm) cross sections of the aortic wall were obtained from the paraffin-embedded specimens (n=9 sections per group). An elastic von Gieson-Masson trichrome or Elastica van Gieson-Hematoxylin double stain was performed for light microscopic analysis. For the 28 day specimen analysis (n=3 animals per group), each plastic-embedded aorta with stents was cut into five pieces longitudinally equal lengths. These pieces were stained by modified Verhoff elastic staining. Five cross sectional images of the stained aorta were obtained (n=15 sections per group) from one side of plastic pieces. […] Using Image Pro Plus software (Media Cybernetics, Silver Spring, Md.), the cross-sectional area of the intima and the media were determined by blinded observers. The ratio of intima area to media area subsequently tabulated for each, with the results presented as Table 2. Mean, standard error, and significance were determined.

Assay [2] deals with infra-renal abdominal aorta. The assay can be described thus: Local plaque stability parameters: macrophage infiltrate and endothelial density (CD31). Type of assay: in vivo, New Zealand White rabbits. Particulars: 7 days after stent implantation. The method, then:
In Vivo Stent Implantation. Age-matched adult male New Zealand White rabbits weighing 3.8–4.2 kg were used in accordance to NIH and institutional guidelines (n=6 animals per group). Under general anesthesia, an arteriotomy at the femoral artery was performed and a 5 Fr introducing sheath was placed. Under fluoroscopic guidance, aseptically prepared channeled stents filled with blank or angiostatin microspheres were deployed in the infra-renal abdominal aorta. Stents were post-dilated at 8 atm with a 5 mm angioplasty balloon (Jupiter, Cordis, Miami, Fla.) to a final lumen size of 125% above the baseline with care taken to ensure that […] were present within the stent segment. Pre- and post-deployment digital subtraction angiograms were recorded for the blank procedural control and angiostatin treatment groups. […]
Evaluation of Local Plaque Stability Parameters: Macrophage Infiltrate and Endothelial Density. Cross sections at the 7 day time point evaluated above were obtained (two per segment) from each vessel and incubated with a primary monoclonal antibody to rabbit macrophage (clone RAM-11, 1/800 dilution, DAKO, Carpinteria, Calif.). The number of positive cells per cross section was counted by a blinded observer. […] Mean and standard error were tabulated for each group with significance determined as before and p values as reported.

The results in this text go back to patent publication US7048939B2, “Methods for the inhibition of neointima formation” (The Board of Trustees of the Leland Stanford Junior …, priority 2001, dated 2006).

Regarding `CCC[C@H](N[C@@H](C)C(=O)N1[C@H](C(=O)O)C[C@@H]2CCCC[C@@H]21)C(=O)O` [ATIIr, perindoprilate, reference compound], in assay [1], the “Intima to media ratio (ratio of intimal area to medial area, mean ± SE)” value turned out to be 1.730 ± 0.090.
As to `CN1CCC[C@H]1c1cccnc1` [Nicotine, S-3-(1-methyl-2-pyrrolidinyl)pyridine, reference compound], the “Intima to media ratio (ratio of intimal area to medial area, mean ± SE)” value in assay [1] came out at 1.377 ± 0.060.
For “TGFβ1: transforming growth factor β1 (Oncogene Research)”, the “Intima to media ratio (ratio of intimal area to medial area, mean ± SE)” value in assay [1] was determined as 1.803 ± 0.053.
On the same count and under the same terms, next, “FGF: acidic FGF (Calbiochem) loaded with endotoxin-free heparin as a stabilizer”: 1.634 ± 0.051; “AAT: elastase inhibitor alpha-1-antitrypsin (Calbiochem)”: 1.322 ± 0.060; `CCNCCN(CC)N(O)N=O` [NO, N-Ethyl-2-(1-ethyl-2-hydroxy-2-nitrosohydrazino) ethanamine, reference compound]: 1.338 ± 0.051.
Angiostatin: in assay [1], the “Intima to media ratio (ratio of intimal area to medial area, mean ± SE)” value is 1.610 ± 0.050. Further, the “Number of plaque microvessels (CD31) per cross section (mean ± SE)” value in assay [2] came out at 0.111 ± 0.111. Further, the “Number of cross-sectional macrophages (mean ± SE)” value in assay [2] (RAM-11 positive cells per cross section) stood at 34.889 ± 3.948 P = 0.0011.

B1: Fas ligand: pro-apoptotic factor, death domain receptor ligand (Oncogene Research) (protein, UniProt P48023 130-281, looked up)
Tumor necrosis factor ligand …: QIGHPSPPPEKKELRKVAHLTGKSNSRSMPLEWEDTYGIVLLSGVKYKKGGLVINETGLYFVYSKVYFRGQSCNNLPLSHKVYMRNSKYPQDLVMMEGKMMSYCTTGQMWARSSYLGAVFNLTSADHLYVNVSELSLVNFEESQTFFGLYKL
With B1, the “Intima to media ratio (ratio of intimal area to medial area, mean ± SE)” value in assay [1] stood at 1.356 ± 0.053.
